In patent US20080299538A1, “Pathogen Inactivation of Whole Blood” (CARIDIANBCT BIOTECHNOLOGIES, LLC, priority 2003, published 2008):
Values joined by “and” are separate entries in the source; they are usually repeats but may differ in a detail not shown here. Equal entries are not always repeated.

How the values were obtained:
[1] = tested on: white blood cells (WBCs); assay: Cytokine production in response to anti-CD3/CD28 (Cytometric Bead Assay); conditions: anti-CD3/28, inflammatory cytokines
[2] = tested on: vesicular stomatitis virus (VSV); format: cell-based; conditions: as a function of illumination energy
[3] = tested on: white blood cells (WBCs); assay: Cytokine production in response to LPS (Cytometric Bead Assay); conditions: for % inhibition of IFN-γ production / % inhibition of IL-2 production / % inhibition of IL-4 production / % inhibition of IL-5 production / % inhibition of IL-10 production / % inhibition of TNFα production / % inhibition of IL-1β production / % inhibition of IL-6 production / % inhibition of IL-8 production: LPS
[4] = tested on: canine parvovirus (CPV); assay: Virus inactivation in whole blood; format: cell-based; conditions: as a function of illumination energy
[5] = tested on: T cells; assay: CD69 expression after PMA activation (flow cytometry); format: cell-based; conditions: all energies tested (22, 33 and 44 J/mLRBC)
[6] = tested on: white blood cells (WBCs); assay: WBC functionality, all tested stimuli (summary statements); format: cell-based
[7] = tested on: white blood cells (WBCs); assay: WBC proliferation in response to PHA (thymidine incorporation)
[8] = tested on: platelets; assay: Platelet quality during storage; format: cell-based
Procedure: Platelet quality is assessed with measurements of pH, swirl, lactate production rate and glucose consumption rate on Days 1 and 5.
Platelets were separated from pathogen inactivated whole blood and markers of platelet quality were measured.

[9] = inflammatory cytokines, 22 J/mlRBC
[10] = inflammatory cytokines, 33 J/mlRBC
[11] = inflammatory cytokines, 44 J/mlRBC
[12] = over 5 days of storage at higher energy levels

Cc1cc2nc3c(=O)[nH]c(=O)nc-3n(C[C@H](O)[C@H](O)[C@H](O)CO)c2cc1C [riboflavin, 7,8-dimethyl-10-ribityl isoalloxazine]
% inhibition of TNFα production ([1]; 22 J/mlRBC): 90 ± 12% | % inhibition of IL-1β production ([1]; 33 J/mlRBC): 100 ± 0% | % inhibition of IL-6 production ([1]; 33 J/mlRBC): 100 ± 0% | % inhibition of IL-8 production ([1]; 33 J/mlRBC): 98 ± 2% | % inhibition of IL-10 production ([1]; 33 J/mlRBC): 100 ± 0% | % inhibition of IL-12 p70 production ([1]; 33 J/mlRBC): 99 ± 2% | % inhibition of TNFα production ([1]; 33 J/mlRBC): 100 ± 0% | % inhibition of IL-1β production ([1]; 44 J/mlRBC): 100 ± 0% | % inhibition of IL-6 production ([1]; 44 J/mlRBC): 100 ± 0% | % inhibition of IL-8 production ([1]; 44 J/mlRBC): 100 ± 0% | % inhibition of IL-10 production ([1]; 44 J/mlRBC): 100 ± 0% | % inhibition of IL-12 p70 production ([1]; 44 J/mlRBC): 97 ± 4% | % inhibition of TNFα production ([1]; 44 J/mlRBC): 100 ± 0% | log reduction of virus [2]: increases linearly with respect to energy | inflammatory cytokine production in response to LPS [3]: reduced with treatment, but not to medium control levels | TH1/TH2 cytokine levels induced by LPS ([3]; 44 J/mlRBC): reduced to medium control levels | % inhibition of IFN-γ production ([3]; TH1/TH2 cytokines, 22 J/mlRBC): 63 ± 71% | % inhibition of IL-2 production ([3]; TH1/TH2 cytokines, 22 J/mlRBC): 63 ± 54% | % inhibition of IL-4 production ([3]; TH1/TH2 cytokines, 22 J/mlRBC): 59 ± 65% | % inhibition of IL-5 production ([3]; TH1/TH2 cytokines, 22 J/mlRBC): 89 ± 2% | % inhibition of IL-10 production ([3]; TH1/TH2 cytokines, 22 J/mlRBC): 66 ± 21% | % inhibition of TNFα production ([3]; TH1/TH2 cytokines, 22 J/mlRBC): 45 ± 53% | % inhibition of IFN-γ production ([3]; TH1/TH2 cytokines, 33 J/mlRBC): 93 ± 8% | % inhibition of IL-4 production ([3]; TH1/TH2 cytokines, 33 J/mlRBC): 90 ± 4% | % inhibition of IL-10 production ([3]; TH1/TH2 cytokines, 33 J/mlRBC): 94 ± 4% | % inhibition of TNFα production ([3]; TH1/TH2 cytokines, 33 J/mlRBC): 94 ± 5% | % inhibition of IFN-γ production ([3]; TH1/TH2 cytokines, 44 J/mlRBC): 93 ± 7% | % inhibition of IL-2 production ([3]; TH1/TH2 cytokines, 44 J/mlRBC): 88 ± 4% | % inhibition of IL-4 production ([3]; TH1/TH2 cytokines, 44 J/mlRBC): 90 ± 4% | % inhibition of IL-5 production ([3]; TH1/TH2 cytokines, 44 J/mlRBC): 91 ± 6% | % inhibition of IL-10 production ([3]; TH1/TH2 cytokines, 44 J/mlRBC): 99 ± 1% | % inhibition of TNFα production ([3]; TH1/TH2 cytokines, 44 J/mlRBC): 94 ± 8% | % inhibition of IL-1β production [3, 9]: 68 ± 19% | % inhibition of IL-6 production [3, 9]: 84 ± 8% | % inhibition of IL-8 production [3, 9]: 85 ± 8% | % inhibition of IL-10 production [3, 9]: 63 ± 21% | % inhibition of TNFα production [3, 9]: 54 ± 35% | % inhibition of IL-1β production [3, 10]: 91 ± 8% | % inhibition of IL-6 production [3, 10]: 96 ± 3% | % inhibition of IL-8 production [3, 10]: 96 ± 4% | % inhibition of IL-10 production [3, 10]: 94 ± 5% | % inhibition of TNFα production [3, 10]: 92 ± 8% | % inhibition of IL-1β production [3, 11]: 98 ± 3% | % inhibition of IL-6 production [3, 11]: 99 ± 1% | % inhibition of IL-8 production [3, 11]: 99 ± 1% | % inhibition of IL-10 production [3, 11]: 99 ± 1% | % inhibition of TNFα production [3, 11]: 98 ± 2% | log reduction of virus [4]: increases linearly with respect to energy | expression of CD69 on T cells after PMA activation [5]: inhibited expression of CD69 | inhibition of WBC proliferation / decrease of proliferative response ([6]; all tested stimuli and antigen presentation, all energies tested, stimulated control vs stimulated treated cells): 93-99% and > 90% | functional inactivation of white blood cells in whole blood ([6]; riboflavin and light): functionally inactivates the white blood cells | proliferation in response to PHA, anti-CD3/CD28 and allogeneic stimulator cells ([6]; riboflavin+UV light at all energies tested): inhibited proliferation | % inhibition of proliferation ([7]; 22 J/mlRBC): 98 ± 1% | % inhibition of proliferation ([7]; 33 J/mlRBC): 99 ± 1% | induced proliferation of treated WBCs ([7]; 33 J/mlRBC and above, 3 days of incubation): no detectable induced proliferation | % inhibition of proliferation ([7]; 44 J/mlRBC): 99 ± 0% | platelet carbon dioxide production [8, 12]: appears to decrease | platelet glucose consumption [8, 12]: appears to decrease | platelet lactate production [8, 12]: appears to increase | platelet oxygen consumption [8, 12]: appears to increase | platelet pH ([8]; over 5 days of storage, treated and untreated): remains the same
